Assay results published in doi:10.1101/2024.08.19.608619, “Discovery of potent SARS-CoV-2 nsp3 macrodomain inhibitors uncovers lack of translation to cellular antiviral response” (bioRxiv, 2024).
Values after ≈ are worked out from the molar mass of the structure shown. Values joined by “and” are separate entries in the source; they are usually repeats but may differ in a detail not shown here. Identical values can stand only once. Like-named read-outs stand apart in the source and are kept apart here.

Columns and labels:
[1] = tested on: SARS-CoV-2, isolate USA-WA1/2020; assay: microbe, parasite or virus in culture; format: cell-based; details: HeLa-ACE2 SARS-CoV-2 antiviral effect without P-gp inhibitor; for perc_max_measured: maximum measured response of dose series; for perc_min_measured: minimum measured response of dose series; for EC50: read-out: ec50; for EC90: read-out: ec90
SARS-CoV-2 = assay: Antiviral effect in iPSC-derived pneumocyte system; format: cell-based; details: iPSC pneumocytes SARS-CoV-2 antiviral effect; for perc_max_measured: maximum measured response of dose series; for perc_min_measured: minimum measured response of dose series
[2] = Hepatic microsomal stability, HLM; format: in vitro ADME, human; details: In vitro human liver microsomal stability; for perc_remaining_no_cofactor: no cofactor
[3] = Hepatic microsomal stability, MLM; format: in vitro ADME
iPSC pneumocytes = iPSC pneumocytes cytotoxicity; format: cell-based; details: for perc_max_measured: highest measured response of the dose series; for perc_min_measured: lowest measured response of the dose series
Excerpt: Supplement media-1.zip/Cytotoxicity.csv, table | column: cc10; cc50; perc_min_measured; perc_max_measured

HeLa-ACE2 cells = details: protocol HeLa-ACE2 cytotoxicity; for perc_max_measured: highest measured response of the dose series; for perc_min_measured: lowest measured response of the dose series
LogD = details: pH 7.4; In vitro LogD
in vitro [4] = assay: in vitro; set-up: Cytotoxicity in iPSC-derived pneumocytes, CC50; details: human, ipsc-derived pneumocytes, read-out: 50.0
Excerpt: Finally, we consider the hypothesis that interferon response triggers ADP-ribosylation, thus profiling the compounds in enhanced and physiologically relevant interferon environments could reveal detectable antiviral effects. […] Furthermore, HeLa-ACE2 cells, and all cancerous cell lines, display defective innate immune response ([1]). As such, we also assess our compound in a primary-like iPSC-derived pneumocyte system (Figure 7C), showing likewise a lack of antiviral activity in this physiologically relevant innate immunity system.

in vitro [5] = details: human, hela-ace2 cells, 50.0
[6] = In vitro kinetic solubility; details: In vitro kinetic solubility, ph 7.4
[7] = Permeability Papp (AB) MDR1/MDCKII; details: for papp_a_to_b_mean / papp_b_to_a_mean / efflux_ratio / perc_recovery_a_to_b_mean / perc_recovery_b_to_a_mean: In vitro MDR1-MDCKII permeability; for papp_a_to_b_mean: A to B; for papp_b_to_a_mean: B to A; for perc_recovery_a_to_b_mean / perc_recovery_a_to_b_inhibitor_mean: recovery A to B; for perc_recovery_b_to_a_mean / perc_recovery_b_to_a_inhibitor_mean: recovery B to A; for perc_recovery_a_to_b_inhibitor_mean / perc_recovery_b_to_a_inhibitor_mean: MDR1-MDCKII
[8] = In vitro mouse liver microsomal stability
[9] = In vitro mouse liver microsomal stability, no cofactor
[10] = In vitro mouse liver microsomal stability; no cofactor
[11] = protocol iPSC pneumocytes cytotoxicity

Structure (SMILES) | perc_max_measured [1] | perc_min_measured [1] | EC50 [1] | EC90 [1] | EC50 (SARS-CoV-2) | EC90 (SARS-CoV-2) | perc_max_measured (SARS-CoV-2) | perc_min_measured (SARS-CoV-2) | clint [2] | perc_remaining [2] | t_half [2] | perc_remaining_no_cofactor [2] | clint [3, 8] | perc_remaining [3, 8] | t_half [3, 8] | CC50 (HeLa-ACE2 cells) | cc10 (HeLa-ACE2 cells) | perc_max_measured (HeLa-ACE2 cells) | perc_min_measured (HeLa-ACE2 cells) | logd (LogD) | other results
CC(C)[C@H](Nc1ncnc2[nH]c(-c3cnn(CC(N)=O)c3)cc12)c1ccc2c(c1)S(=O)(=O)CCC2 (single isomer, unassigned) [ASAP-0011428] | 108.399% | 92.21% | > 20 µM | > 20 µM | > 50 µM | > 50 µM | 119.318% | 70.174% | 240.0 µL/min/mg | 2.0% | 7.0 min | 115.0% | 39.0 µL/min/mg | 53.0% | 42.6 min | > 20 µM | > 20.0 µM | 96.287% | 76.492% | 2.1 | perc_remaining_no_cofactor [3, 9]: 98.0%; CC50 (iPSC pneumocytes): > 50 µM; cc10 (iPSC pneumocytes): > 50.0 µM; perc_max_measured (iPSC pneumocytes): 106.229%; perc_min_measured (iPSC pneumocytes): 92.999%; CC50 (in vitro [4]; ASAP-0008327-001=ASAP-0011428-001): > 50 µM; CC50 at 24 h (in vitro [5]): > 20 µM; solubility_mean [6]: 338 µM (≈ 167 µg/mL); papp_a_to_b_mean ([7]; mean): 1.98 ×10⁻⁶ cm/s; papp_a_to_b_mean ([7]; no inhibitor): 0.0832 ×10⁻⁶ cm/s; papp_b_to_a_mean ([7]; no inhibitor): 0.072 ×10⁻⁶ cm/s; efflux_ratio ([7]; no inhibitor): 0.9; perc_recovery_a_to_b_mean ([7]; mean): 85.9%; perc_recovery_a_to_b_mean ([7]; no inhibitor): 65.5%; perc_recovery_b_to_a_mean ([7]; no inhibitor): 72.9%; perc_recovery_a_to_b_inhibitor_mean ([7]; with inhibitor Verapamil): 73.2%; perc_recovery_b_to_a_inhibitor_mean ([7]; with inhibitor Verapamil): 79.8%
CC(C)[C@@H](Nc1ncnc2[nH]c(-c3cnn(C)c3)cc12)c1ccc2c(c1)S(=O)(=O)CCC2 (single isomer, unassigned) [ASAP-0012329] | 119.22% | 72.714% | > 20 µM | > 20 µM | 7.59 µM | > 50 µM | 103.795% | 0.206% | 405.0 µL/min/mg | 0.0% | 4.1 min | 105.0% | 140.0 µL/min/mg | 10.0% | 11.9 min | > 20 µM | > 20.0 µM | 91.281% | 71.036% | 3.2 | perc_remaining_no_cofactor [3, 9]: 102.0%; CC50 (iPSC pneumocytes): > 50 µM; cc10 (iPSC pneumocytes): 30.402 µM; perc_max_measured (iPSC pneumocytes): 108.573%; perc_min_measured (iPSC pneumocytes): 85.97%; CC50 (in vitro [4]; ASAP-0008327-001=ASAP-0012329-001): > 50 µM; CC50 at 24 h (in vitro [5]): > 20 µM; solubility_mean [6]: 111 µM (≈ 50 µg/mL); papp_b_to_a_mean ([7]; no inhibitor): 3.9 ×10⁻⁶ cm/s and 5.0 ×10⁻⁶ cm/s; efflux_ratio ([7]; no inhibitor): 40.3 and 73.5; perc_recovery_a_to_b_mean ([7]; no inhibitor): 72.3% and 98.8% and 68.0%; perc_recovery_b_to_a_mean ([7]; no inhibitor): 79.2% and 106.0%; perc_recovery_a_to_b_inhibitor_mean ([7]; with inhibitor Cyclosporin A): 77.4%; perc_recovery_a_to_b_inhibitor_mean ([7]; with inhibitor Verapamil): 104.0%; perc_recovery_b_to_a_inhibitor_mean ([7]; with inhibitor Cyclosporin A): 63.1%; perc_recovery_b_to_a_inhibitor_mean ([7]; with inhibitor Verapamil): 96.9%
CC(C)[C@@H](Nc1ncnc2[nH]c(-c3cnn(CC(N)=O)c3)cc12)c1ccc2c(c1)OCCO2 [ASAP-0008288] | 122.799% | 73.654% | > 50 µM | > 50 µM | 37.1 µM | > 50 µM | 96.462% | 23.083% | 99.0 µL/min/mg | 20.0% | 16.9 min | 103.0% | 41.0 µL/min/mg | 54.0% | 41.1 min | > 50 µM | > 50.0 µM | 128.866% | 114.308% | 0.9 | perc_remaining_no_cofactor [3, 10]: 87.0%; CC50 (iPSC pneumocytes; [11]): > 50 µM; cc10 (iPSC pneumocytes; [11]): > 50.0 µM; perc_max_measured (iPSC pneumocytes; [11]): 102.79%; perc_min_measured (iPSC pneumocytes; [11]): 85.436%; CC50 (in vitro [4]; ASAP-0008327-001=ASAP-0008288-001): > 50 µM; CC50 at 24 h (in vitro [5]): > 50 µM; solubility_mean [6]: 345 µM (≈ 154 µg/mL); papp_a_to_b_mean ([7]; mean): 0.9 ×10⁻⁶ cm/s; perc_recovery_a_to_b_mean ([7]; mean): 89.0%
CNC(=O)c1cc2c(N[C@@H](c3ccc4c(c3)OCCO4)C(C)C)ncnc2[nH]1 [ASAP-0008348] | 114.293% | 64.264% | > 50 µM | > 50 µM | > 50 µM | > 50 µM | 153.61% | 91.144% | 79.0 µL/min/mg | 23.0% | 21.1 min | 92.0% | 55.0 µL/min/mg | 43.0% | 30.5 min | > 50 µM | > 50.0 µM | 108.404% | 99.225% | 2.76 | perc_remaining_no_cofactor [3, 10]: 112.0%; CC50 (iPSC pneumocytes; [11]): > 50 µM; cc10 (iPSC pneumocytes; [11]): > 50.0 µM; perc_max_measured (iPSC pneumocytes; [11]): 98.804%; perc_min_measured (iPSC pneumocytes; [11]): 52.012%; CC50 (in vitro [4]; ASAP-0008327-001=ASAP-0008348-001): > 50 µM; CC50 at 24 h (in vitro [5]): > 50 µM; solubility_mean [6]: 380 µM (≈ 145 µg/mL); papp_a_to_b_mean ([7]; mean): 1.96 ×10⁻⁶ cm/s; perc_recovery_a_to_b_mean ([7]; mean): 86.8%
